Data: US20260090983A1, “PARENTERAL NUTRITION FORMULATION” (Baxter International Inc., priority 2018, published 2026)
“Also recorded” adds a separate entry of the source. Read-outs that look alike come from different tables or passages of the source.

Assays:
[1] = tested on: male Sprague-Dawley rats with steatosis, induced by choline and methionine deficient (MCD) diet; assay: Development of liver weight versus body weight; assay type: in vivo; conditions: LE 10% without or with choline derivative "high": 31 mmol/L
Text: The effects of GPC as well as of the combination of DHA, ARA and GPC were investigated in a sick animal model, wherein male Sprague-Dawley rats with steatosis, induced by choline and methionine deficient (MCD) diet (S SNIFF MCD pelleted choline/methionine deficient diet (SSNIFF Spezialdiäten GmbH, Soest, Germany, Product No. E15653-94)) were kept on parenteral nutrition.
Parenteral nutrition started after 14 days under MCD diet. First measurements were done after 5 days of parenteral nutrition, followed by measurements after 9 and 17 days. The daily lipid uptake was 2.31 g/kg/d. The rats were split into several groups as set forth below in Table I.
The study groups as described in Example 1 were further evaluated with regard to the development of liver weight versus body weight. An increase in liver weight which is not proportional to the increase of body weight is typical for the development of liver damage, specifically steatosis, as described before.

[2] = tested on: male Sprague-Dawley rats with steatosis, induced by choline and methionine deficient (MCD) diet; assay: Histopathological grading of hepatocellular vacuolation of the liver; assay type: in vivo; conditions: for histopathological examination of the liver, vacuolation (FIG. 4A): Step #2
Method: A part of the liver was preserved in buffered formalin, the infusion sites and the sampled macroscopic lesions were trimmed according to the RITA guidelines, where applicable (Ruchl-Fehlert et al., Exp Toxic Pathol 2003; 5 5, 91-106), embedded in paraffin wax, sectioned at a thickness of approximately four microns and stained with hematoxylin-eosin. The frozen liver sample was cryosectioned in slides of approximately five microns and stained by Oil Red O. Tissue processing was performed at Citoxlab, France.
A microscopic examination was performed on both slides (hematoxylin eosin and Oil Red O) of the liver, the infusion sites and the macroscopic lesions from all animals of the study. Peer review was performed on at least 30% of the animals from the high-dose group and on an adequate number of slides from identified target organs to confirm that findings recorded by the Study Pathologist were consistent and accurate.
Liver samples taken after 8 and 15 days, respectively, were examined as described above and assigned to five grades of hepatocellular vacuolation. Vacuolation was generally diffuse and affected all regions for Grade 5. Periportal areas were lesser affected and the vacuoles were smaller in size for lower grades. Grades have been assigned according to the following definition:

[3] = for Stability upon sterilization (Comment): heat sterilization; for stability of the lipid emulsions during sterilization (heat), in words: lipid emulsions prepared as in Example 1 containing the choline derivative
Method: The choline derivative supplemented “LE” lipid emulsions were prepared as follows. In a first step, raw phases are heated up. In case of the oil phase, soybean and olive oils and egg phosphatide as well as DHA and ARA oils and vitamin E in case of Step #3 experiments are heated in an inox beaker to 75° C. under N2 protection while continuously agitating using an ULTRA TURRAX®. The aqueous phase was prepared by mixing glycerol, sodium oleate and Milli-Q water and constantly heated in an inox beaker to about 75° C. under N2 protection. Where needed, the choline derivative is added under constant agitation. In a second step, the pre-emulsion is prepared by adding the oily phase to the aqueous phase using a peristaltic pump under continuous agitation and then transferred to a high shear inline disperser (e.g. DISPAX REACTOR® DR). The receiving vessel is closed and flushed with nitrogen. In a third step the pre-emulsion is homogenized by passing it several times through a high-pressure homogenizer at 600 bar and a temperature of about 50° C., under a N2 atmosphere.
The emulsion is then adjusted to the required volume (2 L) with Milli-Q water and cooled down to a temperature of approximately 18 to 28° C., preferably 20° C. to 25° C. The pH is adjusted to a range of from 7.8 to 8.8, preferably to about 8.3 to 8.8 with 0.IN NaOH. The emulsion is filtered with a 4.5 μm filter and transferred in 100 mL bags, which are then overpouched, making use of an oxygen absorber/indicator, for later use. The lipid emulsion is then autoclaved at 121° C. to achieve a F0 of at least 15 minutes.

[4] = tested on: male Sprague-Dawley rats with steatosis, induced by choline and methionine deficient (MCD) diet; assay: Aminotransferase (ALT) activity in plasma during parenteral nutrition; assay type: in vivo; conditions: for development of ALT activity from day 5 to day 17 (FIG. 2): Step #2, LE 10% without or with choline derivative "high" 31 mmol/L, plasma after 5 and 17 days of parenteral nutrition
Method: ALT activity is determined by a modification recommended by the International Federation of Clinical Chemistry (IFCC), see also Example 2. ALT catalyzes the reaction of alpha-ketoglutarate with L-alanine to form L-glutamate and pyruvate. Under the action of LDH, pyruvate converts to lactate, and NADH is converted to NAD. The decrease in absorbance of NADH, measured at 340 nm (secondary wavelength is 700 nm), is directly proportional to the serum activity of ALT. It is a kinetic reaction. In general, serum is used for analysis. The serum is separated from the cells within 2 hours of collection and stored at -70° C. until assayed. Monitoring the ALT activity over time in an animal model is used herein as one straightforward and conclusive way to determine the efficacy of GPC in treating liver disease, specifically liver damage caused by a choline-deficient diet (Examples 1 and 2, FIGS. 2 and 3). The effects of GPC as well as of the combination of DHA, ARA and GPC were investigated in a sick animal model, wherein male Sprague-Dawley rats with steatosis, induced by choline and methionine deficient (MCD) diet (S SNIFF MCD pelleted choline/methionine deficient diet (SSNIFF Spezialdiäten GmbH, Soest, Germany, Product No. E15653-94)) were kept on parenteral nutrition. Steatosis was confirmed in the respective groups by histopathology (Example 3). Parenteral nutrition started after 14 days under MCD diet. First measurements were done after 5 days of parenteral nutrition, followed by measurements after 9 and 17 days. The daily lipid uptake was 2.31 g/kg/d. The rats were split into several groups as set forth below in Table I. Two groups served as control groups, wherein a first group was treated with saline solution (0.90% w/v of NaCl in water for injection). A second group received a lipid emulsion (“LE 10%”) containing refined olive oil (80.0 g/L) and refined soybean oil (20.0 g/L) in water for injection, pH 6-8; LE 10% further contained egg lecithin (6.0 g/L), glycerol (11.25 g/L) and sodium oleate (0.15 g/L). LE 10% contained 100 g/L lipids. […] CDP-choline (prepared by fermentation) was from TCI Europe N.V. (Antwerp, Belgium). […] DHA (from algae, Schizochytrium sp.) and ARA (from fungi, Mortierella alpina) were purchased from BASF AG, Germany. Vitamin E was purchased from […].) […] As described before, liver damage (cholestasis) may be determined by increased aminotransferase levels. ALT activity was determined with an AD VIA 1800 blood biochemistry analyzer/IFCC modified (SIEMENS®) according to standard protocols such as described before.

[5] = LE 10% with choline derivative alone (no DHA, ARA), high (31 mmol/L) and low (15 mmol/L) concentration

Molecule	liver to body weight ratio in percent (FIG. 5) [1]	histopathological examination of the liver, vacuolation (FIG. 4A) ([2]; LE 10% with choline derivative alone, low concentration, 15 mmol/L)	Stability upon sterilization (Comment) ([3]; Concentration 30 mmol/L, lipid emulsion tested LE 10 %)	stability of the lipid emulsions during sterilization (heat), in words [3]	development of ALT activity from day 5 to day 17 (FIG. 2) [4]	histopathological examination of the liver, vacuolation (FIG. 4A) [2, 5]	Stability upon sterilization (Comment) ([3]; Concentration 15 mmol/L, lipid emulsions tested LE 10, 13, 20 %)	liver status of the animal, in words ([2]; After 15 days into parenteral nutrition, Step #3, LE 13%, versus saline solution)	Vacuolation; hepatocellular, Grade 2, number of animals ([2]; Day 8, Step #3, phytosterol depleted LE 13%, GPC 40 mmol/L where present, 5 animals per group, Grade 2 = slight/few/small vacuoles)	Vacuolation; hepatocellular, Grade 3, number of animals ([2]; Day 8, Step #3, phytosterol depleted LE 13%, GPC 40 mmol/L where present, 5 animals per group, Grade 3 = moderate vacuoles)	Vacuolation; hepatocellular, Grade 4, number of animals ([2]; Day 8, Step #3, phytosterol depleted LE 13%, GPC 40 mmol/L where present, 5 animals per group, Grade 4 = marked/many/large vacuoles)	Vacuolation; hepatocellular, Grade 5, number of animals ([2]; Day 8, Step #3, phytosterol depleted LE 13%, GPC 40 mmol/L where present, 5 animals per group, Grade 5 = severe, diffuse, all liver regions)	Stability upon sterilization (Comment) ([3]; Concentration 30 mmol/L, lipid emulsions tested LE 10, 20 %)	ALT activity, change in percent of the normal value for plasma (FIG. 3) ([4]; Step #3, LE 10% normal phytosterol without GPC, LE 10% + GPC 40 mmol/L, LE 13% reduced phytosterol + GPC 40 mmol/L)
C[N+](C)(C)CCOP(=O)(O)OP(=O)([O-])OC[C@H]1O[C@@H](n2ccc(N)nc2=O)[C@H](O)[C@@H]1O [CDP-choline, cytidine diphosphate-choline, reference compound]	reduction of the ratio	also had an effect	Phase separation	phase separation of the lipid emulsions during sterilization	neither significantly increases or decreases									
C[N+](C)(C)CCO.[Cl-] [Choline Chloride, (2-Hydroxyethyl)trimethylammonium chloride, reference compound]	reduction of the ratio			phase separation of the lipid emulsions during sterilization	neither significantly increases or decreases	fared better than those with only saline or lipid emulsion without any choline derivative	Phase separation							
C[N+](C)(C)CCOP(=O)([O-])OC[C@H](O)CO [GPC, glycerophosphocholine]	most pronounced reduction of the ratio			remained stable	clear drop in ALT activity; also recorded: most pronounced	most significant impact; also recorded: significantly better		clear and significant improvement of the liver status	one	one	Three	none	Stable emulsion	
phosphatidylcholine	does not seem to have any effect				does not seem to have any effect									does not seem to have any effect
